| Compound | melting point [°C] |
| --- | --- |
| C=CCCCOc1ccc2c(=O)cc(-c3ccccc3)oc2c1 | 104 to 106 |
| CCC(CC)Nc1c(NCc2cc(C)cc(C#N)c2)c(=O)c1=O | 248 to 250 |
| Cc1cc(OCc2ccccc2)cc(OCCCc2ccccc2)c1C(=O)O | 109 to 111 |
| COC(=O)/C=C/c1nccs1 | 75 to 75.5 |
| CCn1cc(C(=O)O)c(=O)c2c(F)c(F)c(N3CCOCC3)c(F)c21 | 281 to 283 |
| CCOc1cc(C2CSCCC2=O)ccc1OC (stereo not drawn) | 108 to 110 |
| Cc1noc(NS(=O)(=O)c2ccccc2-c2ccc(-c3ncco3)cc2Cn2ccnc2C(C)C)c1C | 184 to 188 |
| Cc1nc(N2CCN(CC(C)C)C2=O)sc1C(=O)NCc1cocn1 | 115 to 118 |
| N=C(N)c1ccc(C(=O)NCCCCC(=O)NC(CC(=O)O)C(=O)NC(Cc2ccccc2)C(=O)O)cc1 (stereo not drawn) | 169 to 171 |
| COc1ccc2nc3n(c(=O)c2c1OC)CS(=O)(=O)N3 | > 300 |
| CCCCS(=O)(=O)c1ccc(NN)cc1 | 138 |
| Cc1cnc2sc(SCc3ccccc3)nn2c1=O | 130 to 132 |
| O=C(O)c1cccc(C(=O)NCc2ccc(F)c(-c3cccc(CO)c3)c2)c1 | 169 to 171 |
| CCCCCCCCCCCCNc1ncnc2nc[nH]c12 | 159 to 160 |
| N#CCCCC(=O)c1cc2ccccc2o1 | 79 |
| O=C1NC(=O)C(Sc2ccc3ccccc3c2Br)S1 (stereo not drawn) | 128 to 129 |
| CN(c1cccc2cc(C3=NCC(C)(CCOS(C)(=O)=O)S3)[nH]c12)S(=O)(=O)c1cccs1 (stereo not drawn) | 149 to 150 |
| CCOC(=O)c1cn(C(C)(C)C)c2nc(F)c(Cl)cc2c1=O | 155 |
| C=Cc1ccc(S(N)(=O)=O)cc1 | 130 to 132 |
| COC(=O)C(C)N(C(=O)CO)c1c(C)csc1C (stereo not drawn) | 69 to 70 |
| O=S(=O)(COc1ncc(Cl)cn1)c1ncc(Cl)cn1 | 135 |
| CC1(C)OC(=O)N=C1c1ccccc1 | 106 to 108 |
| OCc1ccccc1CCc1ccc(Br)cc1 | 72 to 75.5 |
| CC(C)[C@H](CC(N)=O)NC(=O)OCc1ccccc1 | 171 to 172 |
| CC(C)Sc1sc(C(=O)N2CCCC2)c2c1-c1oncc1C(C)(C)C2 | 88 to 91 |
| CC(C)(C)c1cc(-c2nc3n(c2C#N)CCS3)cc(C(C)(C)C)c1O | 207 to 208 |

| Compound | melting point [°C] |
| --- | --- |
| CC(COc1ccc(Oc2ccccc2)cc1)=NO | 59 to 61 |
| CCOC(=O)c1cc2c(C(F)(F)F)ccc3c2n1CCN3C | 91 to 92 |
| O=C(c1cccs1)c1cnn2c(-c3cccc(NC(=S)Nc4ccccc4)c3)ccnc12 | 124 to 126 |
| O=C1Nc2ccccc2N2CCc3cc(Cl)cc1c32 | 232 to 233 |
| COc1cc2c(=O)c(C(N)=O)c[nH]c2cc1F | > 300 |
| CC(Nc1ccc(F)c(F)c1F)C(=O)O (stereo not drawn) | 114 to 119 |
| O=[N+]([O-])c1cccc(-c2nc(O)cc3cccnc23)c1 | 262 to 265 |
| COC(=O)[C@@H]1[C@@H](O)CCN1C(=O)Nc1ccc(C#N)c(Cl)c1C | 189 to 191 |
| CN(c1cccc2cc(C3=NCC(CC(=O)NCCO)S3)[nH]c12)S(=O)(=O)c1cccs1 (stereo not drawn) | 214 |
| CCc1ccc(OCc2cccc(NC(=O)CCC(=O)OC)c2)cc1OC | 69 to 70 |
| CCc1ccccc1-c1cn(C)cc(-c2cccc(C(F)(F)F)c2)c1=O | 123 to 125 |
| C=C(C)C(=O)OCCCCCCS(=O)(=O)c1ccc(O)c(C)c1 | 84 to 85 |
| CC(C)NCC(O)COc1ccc(OCCn2cccn2)cc1 (stereo not drawn) | 37 to 39 |
| CC(c1ccccc1)N1Cc2cncn2C(c2ccc(C#N)cc2)C1=O (stereo not drawn) | 157 to 158 |
| O=C(Oc1cc(O)ccn1)c1ccccc1 | 124 to 127 |
| CC(C)COC(=O)Oc1ccc2c(c1)OCN(CCO[N+](=O)[O-])C2=O | 82 to 84 |
| COc1cc(OC)nc(C(=O)NS(=O)(=O)CC(C)C)n1 | 128 to 130 |
| CC1=C(C(=O)N(c2ccccc2)C2CCCCCC(F)C2)CCO1 (stereo not drawn) | 91 |
| NC(=S)c1cc(Cl)c(Cl)c(Cl)n1 | 168 to 169 |
| CS(=O)(=O)Nc1cc(C(c2cc(F)ccc2F)S(=O)(=O)c2ccc(F)cc2)c(Cl)cn1 (stereo not drawn) | 178 to 179 |
| CC(C)OC(=O)COc1ccc(C(=O)CBr)cc1 | 60 to 61 |
| CC1(C)CCC(C)(C)c2cc(-c3nc4ccc(C(=O)O)cc4s3)ccc21 | 292 to 293 |
| Cc1[nH]c(C=O)c(C)c1CCCO | 85 |
| C(#Cc1cccs1)C1=CCN(Cc2c[nH]c3ncccc23)CC1 | 191 to 193 |
| CC1(c2ccc(O)c(Br)c2)C(=O)Nc2cc(Cl)cc(Cl)c2C1=O (stereo not drawn) | 228 to 229 |

Second part, the compound after the results:

| melting point [°C] | Compound |
| --- | --- |
| 209 to 214 | O=c1c2ccc(Cl)cc2[nH]n1Cc1ccccc1 |
| > 260 | Cn1c(=O)cc(C(=O)O)c2cc(C(=O)c3ccc(Cl)cc3)ccc21 |
| 59 to 61 | CCCCOc1c2ccccc2nc2c1c(C)nn2-c1ccccn1 |
| 71 to 73 | CCOC(=O)Cc1nc(-c2ccc(Cl)cc2)sc1Sc1ccccc1 |
| 213 | O=C1CCC(c2ccccc2)(c2ccccc2)[C@@H]2CN(C(=O)Cc3ccc(Cl)cc3)C[C@H]12 (racemic) |
| 152 to 156 | N#CN(CCN1CCC(C(=O)c2ccc(F)cc2)CC1)C(=N)NCCN1CCC(C(=O)c2ccc(F)cc2)CC1 |
| 260 to 262 | FC(F)(F)Oc1ccc(Nc2nc(-c3ccccc3)cc(N3CCOCC3)n2)cc1 |
| 157 to 158 | COC(=O)c1cc(C(=O)NC(C)C(=O)OC)c2ccc(Cc3ccc(F)cc3)nc2c1O (stereo not drawn) |
| 162 to 163 | COc1ccc([C@@H]2O[C@H]2C(=O)Nc2ccccc2)cc1 |
| 228 to 230 | CCCCc1nc2c(N)nc3cc(-c4cccnc4)ccc3c2n1CCNC(=O)C(C)C |
| 198 to 200 | COc1nc2ccccc2nc1NC(=O)N1CCN(c2ccc(C(C)=O)cc2)CC1 |
| 117 to 120 | N#Cc1cc(N(CC(=O)O)C(=O)c2cccn2-c2ccc(F)cc2)ccc1N1CCCCC1 |
| 133 | COc1cccc(C(=O)N2CCCC3=C2CCc2cc(Cl)ccc23)c1 |
| 153 to 154 | Cc1ccc2c3c(ccc2n1)OC[C@H](CN1CCN(c2ccc4cc(Br)ccc4n2)CC1)O3 |
| 183 to 184 | COCCCNc1cccc(Oc2ccc(-c3cn(C4CCOC4)c4ncnc(N)c34)cc2)c1C#N (stereo not drawn) |
| 132 to 134 | O=C1c2ccccc2COc2ccc(Br)cc21 |
| 124 to 133 | CCOC(=O)c1c(N2CCN(C(=O)c3cccs3)CC2)c2cc(F)cnc2[nH]c1=O |
| 173 | Cc1cc(-c2cc(C(F)(F)F)n3cnc(-c4cccnc4)c3n2)ccc1C(F)(F)F |
| 174 to 177 | Cc1cc(-c2cccc(CO)c2)cn2cc(-c3ccc(Cl)cc3)nc12 |
| 188 | COc1cc(Nc2c(C#N)cnc3cc(-c4ccc(CN5CCOCC5)s4)ccc23)c(Cl)cc1Cl |
| 192 to 194 | CN(C)c1cccc(NC(=S)NN=Cc2ccc(-c3ncn(-c4ccc(OC(F)(F)F)cc4)n3)cc2)c1 |
| > 360 | CN(C)CCn1c(=O)c2c3oc4ccccc4oc3c3[nH]c4ccc(O)cc4c3c2c1=O |

Source: a melting point compilation (Tetko et al.; mined from patent text by program, amines drawn as free bases though some values may be those of a salt)
